This is an account of results in PMC10385868 (Viruses, 2023).

The subject of series [1] is VEEV Trinidad. The series is classed as cell-based, Venezuelan equine encephalitis virus.
Series [2] has as its system WEEV. Type of series: cell-based, Western equine encephalitis virus.
Series [3] in a line: in vitro. To be noted: PAMPA. (The PAMPA barrier holds no transporters, so it reflects passive diffusion.)
The target of series [4] is T1, VEEV nsP2 protease (Venezuelan equine encephalitis virus, UniProt P27282). Description: biochemical. To be noted: for kinact/KI: pH 7, read-out: k2/Ki.
A short description of series [5]: in vitro. To be noted: SD, rat, microsomes.
A short description of series [6]: physchem.
For series [7] the following is noted: rat.
The subject of series [8] is VEEV. The series is classed as cell-based, Venezuelan equine encephalitis virus.
For series [9], the system named is EEEV. The series is classed as cell-based, eastern equine encephalitis virus.
Series [10] relates to CHIKV. The series is classed as cell-based, Chikungunya virus.
Series [11] can be described thus: in vitro. The following applies: African green monkey.
For series [12], the system named is VEEV-Trinidad. Description: microbe, parasite or virus in culture. Type of series: cell-based. To be noted: Venezuelan equine encephalitis virus, A549.
The target of series [13] is T1, VEEV nsP2 protease. The series is classed as biochemical.
The subject of series [14] is VEEV-Trd. Description: microbe, parasite or virus in culture. The series is classed as cell-based, Venezuelan equine encephalitis virus.
In series [15] the target is CHIKV nsP2 protease (Chikungunya virus, UniProt Q8JUX6). Type of series: biochemical.
The target of series [16] is WEEV nsP2 protease (Western equine encephalitis virus, UniProt P13896). The series is classed as biochemical.
Series [17] concerns A549. The following applies: African green monkey.

Values after ≈ are worked out from the molar mass of the structure shown. Values joined by “and” are separate entries in the source; they are usually repeats but may differ in a detail not shown here. Identical values can stand only once. Like-named read-outs stand apart in the source and are kept apart here.

T1 sequence (P27282 1003-1322 limits assumed): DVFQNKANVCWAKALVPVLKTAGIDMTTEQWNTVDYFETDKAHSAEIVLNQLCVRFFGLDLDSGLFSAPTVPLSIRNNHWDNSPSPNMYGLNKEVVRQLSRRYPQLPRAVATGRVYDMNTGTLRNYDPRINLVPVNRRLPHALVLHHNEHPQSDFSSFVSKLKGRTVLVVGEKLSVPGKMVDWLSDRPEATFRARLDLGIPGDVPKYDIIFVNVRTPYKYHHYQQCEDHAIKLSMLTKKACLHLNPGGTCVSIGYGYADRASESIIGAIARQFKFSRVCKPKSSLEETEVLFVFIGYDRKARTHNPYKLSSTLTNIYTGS
CHIKV nsP2 protease, sequence (Q8JUX6 1004-1327 limits assumed): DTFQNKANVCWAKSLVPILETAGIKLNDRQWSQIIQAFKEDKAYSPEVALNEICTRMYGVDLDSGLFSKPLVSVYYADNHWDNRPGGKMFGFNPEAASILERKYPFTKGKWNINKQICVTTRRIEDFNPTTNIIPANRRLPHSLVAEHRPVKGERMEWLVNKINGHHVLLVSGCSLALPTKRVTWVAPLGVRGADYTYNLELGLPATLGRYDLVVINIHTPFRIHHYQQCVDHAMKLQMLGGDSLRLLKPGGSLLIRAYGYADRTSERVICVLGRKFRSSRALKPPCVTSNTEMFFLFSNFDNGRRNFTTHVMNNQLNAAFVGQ
WEEV nsP2 protease, sequence (P13896 1001-1320 limits assumed): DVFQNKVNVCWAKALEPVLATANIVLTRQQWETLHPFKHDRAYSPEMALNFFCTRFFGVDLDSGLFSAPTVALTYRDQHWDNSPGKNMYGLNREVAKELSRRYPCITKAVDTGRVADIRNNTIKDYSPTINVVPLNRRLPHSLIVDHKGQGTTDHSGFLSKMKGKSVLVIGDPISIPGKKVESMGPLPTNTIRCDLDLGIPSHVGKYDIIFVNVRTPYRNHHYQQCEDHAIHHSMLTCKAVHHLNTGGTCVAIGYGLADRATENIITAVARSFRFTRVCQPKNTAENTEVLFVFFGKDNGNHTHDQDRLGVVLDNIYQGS

Consider `CCCNC(=O)[C@H]1O[C@@H]1C(=O)N[C@H](C(=O)N1CCC[C@H]1C(=O)OC)[C@@H](C)CC` [CA074me, CA074 methyl ester], for which the PAMPA was determined as 33 ×10⁻⁶ cm/s. In addition, the “reduction in plaque forming units (PFU)” value in [1] was ~ 5 log. In addition, in series [2], the “reduction in PFU” value turned out to be 2 log. Moreover, the Papp (as a rule, the rate of passage across a membrane or cell layer, normalised by area and donor concentration) in [3] stood at 33 ×10⁻⁶ cm/s. For the same compound, the Ki (usually a measure of affinity in units of concentration, obtained from inhibition or displacement) in series [4] worked out at 1200 ± 500 µM. The half-life (as a rule, how long it takes for the measured level to halve) in [5] came to 11.1 min. Further, the solubility (commonly the concentration that dissolves in the medium under given conditions) in series [6] stood at 22 µg/mL (≈ 55.3 µM). In addition, the “Rat_SD/Microsomes t1/2” value in series [7] (microsomes) is given as 11.1 m. Further, in series [8], the “efficacy in plaque assays” value is recorded as “effective”, the “reduction in plaque-forming units (PFU)” value is given as approximately 6 log and the viral titer reduction is given as more than 5 logs. In series [9], the Average titer was 3.12 × 10^4 and 3.20 × 10^6 and 3.18 × 10^7 and 4.57 × 10^7; the “reduction in PFU” value stood at 2 log. Also, the “reduction in PFU” value in [10] came to 2 log. This compound also showed a CC50 in series [11] of more than 100 µM. In addition, it took 11 µM to reach a half-maximal effect in series [12] (EC50).
With `CCOC(=O)[C@H]1O[C@@H]1C(=O)N[C@@H](CC(C)C)C(=O)NCCC(C)C` [E64d], the Average titer in [2] was 2.13 × 10^6 and 2.16 × 10^6; in series [9], 2.28 × 10^8 and 2.27 × 10^8. The “effect on titers” value in series [2] was “no effect”; in series [8], “minor reductions”; in [9] it was “no effect”; in series [10], “minor reductions”. In [3], this compound registered a Papp of 89 ×10⁻⁶ cm/s. This compound displayed an inhibitory constant (Ki) in series [4] of 40 ± 30 µM. The compound also gave a k2 in series [4] (pH 7) of 0.10 ± 0.06 min⁻¹. Moreover, in series [4], the kinact/KI is 33.3 M⁻¹ s⁻¹. Besides, in [13], the “inhibition in discontinuous assays (SDS-PAGE gels)” value is reported as “complete inhibition”. This compound also showed a solubility in [6] of 24 µg/mL (≈ 70.1 µM). For the same compound, in [7] (microsomes), the “Rat_SD/Microsomes t1/2” value was found to be 1.5 m. For the same compound, the “efficacy in cell-based assays” value in series [14] is reported as “ineffective”.
The compound `CC(C)CCNC(=O)C(CC(C)C)NC(=O)C1OC1C(=O)O` (stereo not drawn) [E64c, reference compound] returned a Papp in series [3] of less than 1 ×10⁻⁶ cm/s. In series [13], the “inhibition in discontinuous assays (SDS-PAGE gels)” value is listed as “partial inhibition”. In addition, the concentration in solution in series [6] (solubility) came to 33 µg/mL (≈ 105 µM). For the same compound, the “Rat_SD/Microsomes t1/2” value in series [7] (microsomes) was more than 30 m. Also, in [14], the “efficacy in cell-based assays” value is listed as “ineffective”. Also, the CC50 in series [11] is more than 100 µM. Also, in series [12], the EC50 (commonly the concentration needed to bring the measured effect to its halfway point) was more than 100 µM.
`CCCNC(=O)[C@H]1O[C@@H]1C(=O)N[C@H](C(=O)N1CCC[C@H]1C(=O)O)[C@@H](C)CC` [CA074] had a PAMPA of less than 1 ×10⁻⁶ cm/s. In addition, the “Permeability (PAMPA_Pion_Lipid)” value (PAMPA) was less than 1 ×10⁻⁶ cm/s. Further, in series [15], the “inhibition of CHIKV nsP2 protease” value is “inhibited”. In addition, the “inhibition of WEEV nsP2 protease” value in [16] is reported as “inhibited”. In series [4], the “enhancement of inhibitor binding by Mg^2+ and Mn^2+” value was 3 to 6 fold; the Ki was 1200 µM and 410 µM and 210 µM and 2000 µM; the kinact/KI was 3.33 M⁻¹ s⁻¹. The compound further had a k2/Ki in series [4] (50 mm hepes, pH 7) of 3.3 ± 3.3 M⁻¹ s⁻¹. The compound also came in with a CC50 in [17] of more than 100 µM. In series [7] (SD), the “Microsomal Stability t1/2” value is more than 30 min and the “Rat_SD/Microsomes t1/2” value was more than 30 m.
